Assays:
Aβ42 = Aβ42 cellular assay: inhibition of Aβ42 production in H4 neuroglioma cells stably expressing human APP695, electrochemiluminescence (Meso Scale Discovery) on supernatant; assay type: cell-based; settings: 22 hours incubation, tested range 30 µM to 0.1 nM
Method: (§1) Cells were plated out to near confluency. The compounds to be tested were received as 10 mM stocks in 100% DMSO. A dilution series was initially generated in 100% DMSO and then diluted 200-fold in cell culture media such that the tested concentration range was 30 µM to 0.1 nM and the final DMSO concentration was 0.5%. The diluted compounds were incubated with the cells for 22 hours in an incubator at 37°C and 5% CO2. Aβ42 as well as Aβ total levels were then measured post-incubation from the supernatant of the cells. Aβ42 levels were determined using a specific electrochemiluminescence assay provided by Meso Scale Discovery (Catalog # L21CA-1) according to the manufacturer's protocol. Aβ total levels were likewise determined using a specific electrochemiluminescence assay provided by Meso Scale Discovery (Catalog # L21ZA-1) according to the manufacturer's protocol.
(§2) In order to absolutely define the described compounds as modulators of y-Secretase as opposed to simply inhibitors of γ-Secretase, measurements of not only Aβ42 but also Aβ total are performed.

Aβ total = Aβ total cellular assay: inhibition of Aβ total production in H4 neuroglioma cells stably expressing human APP695, electrochemiluminescence (Meso Scale Discovery) on supernatant; used for the ratio Aβ total IC50 / Aβ42 IC50; assay type: cell-based; settings: higher ratio = more specific inhibition of Aβ42
Method: as §1, §2

| SMILES | IC50 (Aβ42) [nM] | Ratio Aß(total)/Aß42 (Aβ total) |
| --- | --- | --- |
| Cc1ncc(-c2ccc(Nc3ncc4c(n3)N(C)C3(CCOCC3)C(=O)N4C)cn2)o1 [Example 3] | 5400 | >6 |
| Cc1ncc(-c2ccc(Nc3nc(C)c4c(n3)N(C)C3(CCOCC3)C(=O)N4C)cn2)o1 [Example 5] | 3200 | >9 |
| COc1cc(Nc2ncc3c(n2)N(C)C2(CCOC2)C(=O)N3C)ccc1-n1cnc(C)c1 (stereo not shown) [Example 6] | 220 | > 136 |
| COc1cc(Nc2ncc3c(n2)N(C)C2(CCOC2)C(=O)N3)ccc1-n1cnc(C)c1 (stereo not shown) [Example 10] | 620 | 46 |
| COCCN1C(=O)C2(CCOCC2)N(C)c2nc(Nc3ccc(-n4cnc(C)c4)c(OC)c3)ncc21 [Example 11] | 310 | 26 |
| COCCN1C(=O)C2(CCOCC2)N(C)c2nc(Nc3ccc(-n4cnc(C)n4)c(OC)c3)ncc21 [Example 13] | 2200 | >13 |
| COCCN1C(=O)C2(CCOC2)N(C)c2nc(Nc3ccc(-c4ccnc(C)c4)cc3)ncc21 (stereo not shown) [Example 14] | 1400 | > 27 |
| CCCN1C(=O)C2(CCOCC2)N(C)c2nc(Nc3ccc(-n4cnc(C)c4)c(OC)c3)ncc21 [Example 17] | 94 | 65 |
| Cc1cn(-c2ccc(Nc3ncc4c(n3)NC3(CCOC3)C(=O)N4C)cc2C#N)cn1 (stereo not shown) [Example 19] | 280 | > 257 |
| COc1cc(Nc2ncc3c(n2)NC2(CCOC2)C(=O)N3C)ccc1-n1cnc(C)c1 (stereo not shown) [Example 20] | 790 | > 90 |
| COc1cc(Nc2ncc3c(n2)N(C)C2(CCOC2)C(=O)N3C2COC2)ccc1-n1cnc(C)c1 (stereo not shown) [Example 21] | 220 | 114 |
| COc1cc(Nc2ncc3c(n2)N(C)C2(CCOC2)C(=O)N3C(C)C)ccc1-n1cnc(C)c1 (stereo not shown) [Example 23] | 39 | 599 |
| COc1cc(Nc2ncc3c(n2)N(CC2CCOCC2)C2(CCOC2)C(=O)N3CC2CCOCC2)ccc1-n1cnc(C)c1 (stereo not shown) [Example 24] | 3000 | >10 |
| COc1cc(Nc2ncc3c(n2)N(C)C2(CCOC2)C(=O)N3CC2CCOCC2)ccc1-n1cnc(C)c1 (stereo not shown) [Example 26] | 350 | 46 |
| COc1cc(Nc2ncc3c(n2)N(C)C2(COCCOC2)C(=O)N3C)ccc1-n1cnc(C)c1 [Example 27] | 270 | > 112 |
| COc1cc(Nc2ncc3c(n2)NC2(CCOC2)C(=O)N3C2COC2)ccc1-n1cnc(C)c1 (stereo not shown) [Example 28] | 10500 | >3 |

| SMILES | IC50 (Aβ42) [nM] | Ratio Aß(total)/Aß42 (Aβ total) |
| --- | --- | --- |
| COc1cc(Nc2ncc3c(n2)NC2(CCOC2)C(=O)N3CCC(C)C)ccc1-n1cnc(C)c1 (stereo not shown) [Example 29] | 270 | 39 |
| COc1cc(Nc2nc(CC(C)C)c3c(n2)N(C)C2(CCOC2)C(=O)N3C)ccc1-n1cnc(C)c1 (stereo not shown) [Example 32] | 79 | 124 |
| COc1cc(Nc2ncc3c(n2)N(C)C2(CCc4ccccc4C2)C(=O)N3C)ccc1-n1cnc(C)c1 (stereo not shown) [Example 36] | 69 | 179 |
| Cc1ncc(-c2ccc(Nc3ncc4c(n3)N(C)C3(CCc5ccccc5C3)C(=O)N4C)cn2)o1 (stereo not shown) [Example 37] | 940 | 29 |
| COc1cc(Nc2ncc3c(n2)N(C)C2(CCOC2)C(=O)N3c2ccc(F)cc2)ccc1-n1cnc(C)c1 (stereo not shown) [Example 37a] | 60 | 307 |
| COc1cc(Nc2nc3c(c(C(F)(F)F)n2)N(C)C(=O)C2(CCOCC2)N3C)ccc1-n1cnc(C)c1 [Example 37d] | 815 | >36 |
| COc1cc(Nc2ncc3c(n2)N(C)C2(CCOC2)C(=O)N3CC(F)F)ccc1-n1cnc(C)c1 (stereo not shown) [Example 37h] | 123 | 85 |
| CCc1nc(Nc2cnc(-n3cnc(C)c3)c(OC)c2)nc2c1N(C)C(=O)C1(CC1)N2C [Example 37i] | 150 | 54 |
| COc1cc(Nc2ncc3c(n2)N(C)C2(CCOCC2)C(=O)N3Cc2ccc(F)cc2F)ccc1-n1cnc(C)c1 [Example 37j] | 73 | 57 |
| COc1cc(Nc2ncc3c(n2)N(C2CCCC2)C2(CC2)C(=O)N3C)ccc1-n1cnc(C)c1 [Example 38] | 410 | >15 |
| COc1cc(Nc2nc3c(c(C(C)(C)O)n2)N(C)C(=O)C2(CCOC2)N3C)ccc1-c1cnc(C)o1 (stereo not shown) [Example 40] | 485 | > 62 |
| COc1cc(Nc2ncc3c(n2)N(C)C2(CCCOCC2)C(=O)N3C)ccc1-n1cnc(C)c1 (stereo not shown) [Example 42] | 206 | 51 |
| COc1cc(Nc2ncc3c(n2)N(C)C2(CCC2)C(=O)N3C)ccc1-n1cnc(C)c1 [Example 43] | 123 | 237 |
| COc1cc(Nc2ncc3c(n2)N(C)C2(CC2)C(=O)N3CC(F)(F)F)ccc1-n1cnc(C)c1 [Example 44] | 85 | 50 |
| COc1cc(Nc2ncc3c(n2)N(C)C2(CCC2)C(=O)N3CC(F)(F)F)ccc1-c1cnc(C)o1 [Example 45] | 58 | > 517 |

More lines, main results first:

| IC50 (Aβ42) [nM] | SMILES | Ratio Aß(total)/Aß42 (Aβ total) |
| --- | --- | --- |
| 120 | COc1cc(Nc2ncc3c(n2)N(C)C2(CCOCC2)C(=O)N3C)ccc1-c1cnc(C)o1 [Example 1] | > 244 |
| 190 | COc1cc(Nc2ncc3c(n2)N(C)C2(CCOCC2)C(=O)N3C)ccc1-n1cnc(C)c1 [Example 2] | 89 |
| 290 | COc1cc(Nc2nc(C)c3c(n2)N(C)C2(CCOCC2)C(=O)N3C)ccc1-n1cnc(C)c1 [Example 4] | 101 |
| 95 | COc1cc(Nc2ncc3c(n2)N(C)C2(CCOC2)C(=O)N3C)ccc1-c1cnc(C)o1 (stereo not shown) [Example 7] | > 315 |
| 3000 | Cc1ncc(-c2ccc(Nc3ncc4c(n3)N(C)C3(CCOC3)C(=O)N4C)cn2)o1 (stereo not shown) [Example 8] | >10 |
| 300 | COc1cc(Nc2ncc3c(n2)N(C)C2(CCOCC2)C(=O)N3)ccc1-n1cnc(C)c1 [Example 9] | > 101 |
| 1900 | COCCN1C(=O)C2(CCOCC2)N(C)c2nc(Nc3ccc(-c4ccnc(C)c4)cc3)ncc21 [Example 12] | 11 |
| 2100 | COCCN1C(=O)C2(CCOC2)N(C)c2nc(Nc3ccc(-n4cnc(C)n4)c(OC)c3)ncc21 (stereo not shown) [Example 15] | >15 |
| 180 | COCCN1C(=O)C2(CCOC2)N(C)c2nc(Nc3ccc(-n4cnc(C)c4)c(OC)c3)ncc21 (stereo not shown) [Example 16] | 88 |
| 300 | Cc1cn(-c2ccc(Nc3ncc4c(n3)N(C)C3(CCOC3)C(=O)N4C)cc2C#N)cn1 (stereo not shown) [Example 18] | 145 |
| 3300 | COc1cc(Nc2ncc3c(n2)NC2(CCOC2)C(=O)N3CC2CCOCC2)ccc1-n1cnc(C)c1 (stereo not shown) [Example 22] | >9 |
| 290 | COc1cc(Nc2ncc3c(n2)N(C)C2(COCCOC2)C(=O)N3)ccc1-n1cnc(C)c1 [Example 25] | 91 |
| 100 | COCCN1c2nc(Nc3ccc(-n4cnc(C)c4)c(OC)c3)nc(CC(C)C)c2N(C)C(=O)C12CCOC2 (stereo not shown) [Example 30] | 96 |
| 180 | COCCN1c2nc(Nc3ccc(-c4cnc(C)o4)c(OC)c3)nc(CC(C)C)c2N(C)C(=O)C12CCOC2 (stereo not shown) [Example 31] | 47 |
| 140 | COc1cc(Nc2nc(CC(C)C)c3c(n2)NC2(CCOC2)C(=O)N3)ccc1-n1cnc(C)c1 (stereo not shown) [Example 33] | 124 |
| 73 | CCc1nc(Nc2ccc(-n3cnc(C)c3)c(OC)c2)nc2c1N(C)C(=O)C1(CCOC1)N2C (stereo not shown) [Example 34] | 115 |
| 76 | CCc1nc(Nc2ccc(-n3cnc(C)c3)c(C#N)c2)nc2c1N(C)C(=O)C1(CCOC1)N2C (stereo not shown) [Example 35] | 180 |
| 172 | COc1cc(Nc2ncc3c(n2)N(C)C2(CCOCC2)C(=O)N3C2CC2)ccc1-n1cnc(C)c1 [Example 37b] | 47 |
| 116 | COc1cc(Nc2ncc3c(n2)N(C)C2(CCOCC2)C(=O)N3c2cc(F)cc(F)c2)ccc1-n1cnc(C)c1 [Example 37c] | 75 |
| 86 | COc1cc(Nc2ncc3c(n2)N(C)C2(CCOC2)C(=O)N3CC(F)(F)F)ccc1-n1cnc(C)c1 (stereo not shown) [Example 37e] | 82 |
| 145 | COc1cc(Nc2ncc3c(n2)N(C)C2(CCOCC2)C(=O)N3c2ccc(F)cc2)ccc1-n1cnc(C)c1 [Example 37f] | 55 |
| 196 | COc1cc(Nc2ncc3c(n2)N(C)C2(CCOC2)C(=O)N3C2CC2)ccc1-n1cnc(C)c1 (stereo not shown) [Example 37g] | 58 |
| 120 | COc1cc(Nc2ncc3c(n2)N(C)C2(CCOC2)C(=O)N3C(C)c2ccccn2)ccc1-n1cnc(C)c1 (stereo not shown) [Example 37k] | 88 |
| 78 | COc1cc(Nc2ncc3c(n2)N(C)C2(CCCCOC2)C(=O)N3C)ccc1-n1cnc(C)c1 (stereo not shown) [Example 39] | 91 |
| 1220 | COc1cc(Nc2ncc3c(n2)N(C)C2(COC2)C(=O)N3C)ccc1-n1cnc(C)c1 [Example 41] | > 25 |

From patent publication EP2958918B1, “DIHYDROPTERIDINONES II” (Boehringer Ingelheim International GmbH, priority 2013, dated 2014)
